Results taken from PMC5346980 (ACS Medicinal Chemistry Letters, 2017).
Like-named read-outs stand apart in the source and are kept apart here. One block for each molecule: values may come before it.

Legend:
Purified Hb = Purified Hb (Homo sapiens, UniProt P69905); assay: Time dependence of hemoglobin-oxygen affinity; format: biochemical; conditions: Purified Hb 25 µM, 37 °C
[1] = monkeys; cited from earlier work
P-gp = P-gp (Homo sapiens, UniProt P08183); assay: Transporter substrate assessment; format: in vitro ADME
[2] = dogs; cited from earlier work
BCRP = molecular target: T1, BCRP (Homo sapiens, UniProt Q9UNQ0); assay: Transporter substrate assessment; format: in vitro ADME
T1 sequence (Q9UNQ0 1-655): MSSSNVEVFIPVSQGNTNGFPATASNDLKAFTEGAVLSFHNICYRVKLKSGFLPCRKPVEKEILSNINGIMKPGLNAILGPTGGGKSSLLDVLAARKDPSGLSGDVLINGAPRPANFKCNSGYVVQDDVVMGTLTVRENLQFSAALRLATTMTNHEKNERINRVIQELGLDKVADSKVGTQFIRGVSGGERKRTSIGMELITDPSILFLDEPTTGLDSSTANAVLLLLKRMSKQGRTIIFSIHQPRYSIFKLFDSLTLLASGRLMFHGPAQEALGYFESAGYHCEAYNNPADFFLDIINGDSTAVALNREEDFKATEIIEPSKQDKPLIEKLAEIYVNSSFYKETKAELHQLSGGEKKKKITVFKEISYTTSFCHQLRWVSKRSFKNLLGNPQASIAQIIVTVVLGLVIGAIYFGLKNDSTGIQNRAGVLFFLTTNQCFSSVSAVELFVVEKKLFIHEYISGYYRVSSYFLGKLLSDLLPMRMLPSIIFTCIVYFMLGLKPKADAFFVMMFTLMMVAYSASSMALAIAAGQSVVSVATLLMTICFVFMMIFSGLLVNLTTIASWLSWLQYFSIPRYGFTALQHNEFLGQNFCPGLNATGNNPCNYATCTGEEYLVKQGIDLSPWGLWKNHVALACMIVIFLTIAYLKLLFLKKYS

CYP2C19 = CYP2C19 (Homo sapiens, UniProt P33261); assay: Time-dependent CYP inhibition; format: in vitro ADME
[3] = rats; cited from earlier work
CYP3A4 = CYP3A4 (Homo sapiens, UniProt P08684); assay: Time-dependent CYP inhibition; format: in vitro ADME
[4] = molecular target: purified Hb (a mixture of HbA and HbS) (Homo sapiens, UniProt P69905); assay: Hemoximetry oxygen equilibrium curves; format: biochemical; conditions: des-formyl compound lacking the aldehyde
Chain of purified Hb (a mixture of HbA and HbS) (P69905 2-142 limits assumed): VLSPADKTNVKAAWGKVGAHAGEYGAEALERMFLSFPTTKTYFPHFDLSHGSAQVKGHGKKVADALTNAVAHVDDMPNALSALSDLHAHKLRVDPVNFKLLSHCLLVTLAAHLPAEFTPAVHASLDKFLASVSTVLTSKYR

Chain of Purified Hb (P69905 2-142 limits assumed): as above
Chain of CYP3A4 (P08684 whole entry): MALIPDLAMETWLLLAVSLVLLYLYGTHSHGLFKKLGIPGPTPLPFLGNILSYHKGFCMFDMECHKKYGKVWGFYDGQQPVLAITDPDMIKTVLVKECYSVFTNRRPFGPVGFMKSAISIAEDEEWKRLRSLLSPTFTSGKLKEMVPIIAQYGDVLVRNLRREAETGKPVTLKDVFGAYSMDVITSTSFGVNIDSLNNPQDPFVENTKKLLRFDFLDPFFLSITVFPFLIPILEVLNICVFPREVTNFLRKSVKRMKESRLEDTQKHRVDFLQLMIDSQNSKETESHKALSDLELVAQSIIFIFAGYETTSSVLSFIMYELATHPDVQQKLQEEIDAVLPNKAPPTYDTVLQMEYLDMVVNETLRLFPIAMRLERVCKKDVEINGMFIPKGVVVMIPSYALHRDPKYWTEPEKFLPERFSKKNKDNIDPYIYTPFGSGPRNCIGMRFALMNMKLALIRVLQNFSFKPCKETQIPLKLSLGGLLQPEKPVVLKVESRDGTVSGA
Chain of P-gp (P08183 whole entry): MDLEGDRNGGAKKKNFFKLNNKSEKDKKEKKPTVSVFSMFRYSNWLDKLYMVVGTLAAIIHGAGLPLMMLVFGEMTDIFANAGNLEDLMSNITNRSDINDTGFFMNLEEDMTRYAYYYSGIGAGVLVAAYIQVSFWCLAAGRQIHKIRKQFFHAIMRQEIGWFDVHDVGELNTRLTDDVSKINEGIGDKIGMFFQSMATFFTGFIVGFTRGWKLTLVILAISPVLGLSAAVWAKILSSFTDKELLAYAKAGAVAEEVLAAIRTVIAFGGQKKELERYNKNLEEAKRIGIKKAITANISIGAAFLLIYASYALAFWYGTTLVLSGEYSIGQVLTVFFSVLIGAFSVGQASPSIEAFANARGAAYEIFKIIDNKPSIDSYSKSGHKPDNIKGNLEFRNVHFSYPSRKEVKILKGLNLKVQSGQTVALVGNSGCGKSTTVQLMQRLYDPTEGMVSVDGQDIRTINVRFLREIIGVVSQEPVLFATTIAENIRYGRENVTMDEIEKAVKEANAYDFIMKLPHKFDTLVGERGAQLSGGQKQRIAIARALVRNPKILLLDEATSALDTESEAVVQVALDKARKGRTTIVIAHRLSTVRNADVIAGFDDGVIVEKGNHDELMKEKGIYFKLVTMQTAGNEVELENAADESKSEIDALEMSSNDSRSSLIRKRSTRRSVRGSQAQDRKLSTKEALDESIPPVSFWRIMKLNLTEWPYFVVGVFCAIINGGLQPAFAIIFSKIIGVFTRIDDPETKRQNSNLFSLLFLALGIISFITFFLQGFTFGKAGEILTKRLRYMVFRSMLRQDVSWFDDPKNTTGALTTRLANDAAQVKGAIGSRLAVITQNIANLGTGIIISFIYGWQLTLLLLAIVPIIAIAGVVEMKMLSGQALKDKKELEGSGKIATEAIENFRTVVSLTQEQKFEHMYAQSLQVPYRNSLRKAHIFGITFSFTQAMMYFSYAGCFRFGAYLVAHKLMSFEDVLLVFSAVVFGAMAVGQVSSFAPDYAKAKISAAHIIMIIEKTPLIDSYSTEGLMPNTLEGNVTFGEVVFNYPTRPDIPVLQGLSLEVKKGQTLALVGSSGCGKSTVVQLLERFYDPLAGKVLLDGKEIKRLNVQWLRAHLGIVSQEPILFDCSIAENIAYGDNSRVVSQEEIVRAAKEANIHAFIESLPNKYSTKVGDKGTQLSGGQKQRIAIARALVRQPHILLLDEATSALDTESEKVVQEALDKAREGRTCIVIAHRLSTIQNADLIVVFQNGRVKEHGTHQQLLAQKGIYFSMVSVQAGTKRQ
Chain of CYP2C19 (P33261 whole entry): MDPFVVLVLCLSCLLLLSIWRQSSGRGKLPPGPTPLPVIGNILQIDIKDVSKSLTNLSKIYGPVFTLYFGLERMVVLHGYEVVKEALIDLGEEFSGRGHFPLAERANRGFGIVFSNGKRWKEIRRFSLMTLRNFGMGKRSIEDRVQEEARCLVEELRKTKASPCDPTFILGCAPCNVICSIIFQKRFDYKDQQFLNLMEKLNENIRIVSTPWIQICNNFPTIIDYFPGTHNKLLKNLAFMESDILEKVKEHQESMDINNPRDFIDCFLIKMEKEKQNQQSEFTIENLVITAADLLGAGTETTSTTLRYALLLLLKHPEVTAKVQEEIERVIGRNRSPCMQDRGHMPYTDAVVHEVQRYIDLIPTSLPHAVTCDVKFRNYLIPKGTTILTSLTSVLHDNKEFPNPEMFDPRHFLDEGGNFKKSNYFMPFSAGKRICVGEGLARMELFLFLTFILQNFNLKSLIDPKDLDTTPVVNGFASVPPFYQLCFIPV

time to maximum effect on Hb oxygenation (surrogate for on-rate) (Purified Hb; compound 100 µM): ~1 h
Compound: COc1ccc(OCc2cccnc2)c(C=O)c1 [Compound 4]

substrate for P-gp transporter (P-gp): not a substrate
substrate for BCRP transporter (BCRP): not a substrate
time-dependent inhibition (CYP2C19): no significant time-dependent inhibition
time-dependent inhibition (CYP3A4): no significant time-dependent inhibition
Compound: CC(C)n1nccc1-c1ncccc1COc1cccc(O)c1C=O [Compound 36]
blood and plasma half-lives [1]: approximately 20 h
blood and plasma half-lives [2]: approximately 20 h
blood and plasma half-lives [3]: approximately 20 h

activity as Hb allosteric modulator (result in words) [4]: inactive
Compound: COc1ccc(OCc2cccnc2-c2ccnn2C(C)C)cn1 [Compound 46]

time to maximum effect on Hb oxygenation (surrogate for on-rate) (Purified Hb; compound 5 mM): ~1 h
Compound: O=Cc1ccc(CO)o1 [Compound 1, 5-hydroxymethylfurfural]
